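Assay format: 96-well plates, 48-hour exposure. TGI: concentration producing complete growth inhibition.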

Our source for the TGI values is PubChem BioAssay (NCI).

Some test systems named below: ACHN renal; DU-145 prostate; EKVX NSCLC; KM12 colon; MALME-3M melanoma; MDA-MB-231 breast; MDA-N; NCI-H460 lung; NCI-H522 lung; OVCAR-5 ovarian; PC-3 prostate; RPMI-8226 leukemia; SF-539 CNS; T-47D breast; TK-10 renal; UACC-62 melanoma; UO-31 renal; MCF7 breast.
Experiment in all cases: inhibition of tumour cell growth, NCI panel, 48 h

Take `O=c1c(C2=NCCC2)c(-c2ccc[nH]2)[nH]n1-c1ccccc1`: the TGI in the assay with ACHN renal, in the assay on DU-145 prostate, in the assay with EKVX NSCLC, with KM12 colon, in the assay on MALME-3M melanoma and with MDA-MB-231 breast was over 100 µM each time. The TGI with MDA-N, in the assay with NCI-H460 lung, in the assay with NCI-H522 lung, with OVCAR-5 ovarian, with PC-3 prostate and in the assay on RPMI-8226 leukemia was over 100 µM throughout. The TGI with SF-539 CNS, in the assay on T-47D breast, in the assay with TK-10 renal, in the assay with UACC-62 melanoma and in the assay on UO-31 renal was over 100 µM each time.
For the compound `Cc1[nH]n(C(=N)N)c(=O)c1CCO`, the TGI in the assay on ACHN renal, in the assay with DU-145 prostate, with MALME-3M melanoma, with MCF7 breast, in the assay with MDA-MB-231 breast and with MDA-N was over 100 µM in each case. In addition, the TGI in the assay on NCI-H460 lung, in the assay with NCI-H522 lung, with OVCAR-5 ovarian, in the assay with PC-3 prostate, in the assay on SF-539 CNS and with TK-10 renal was over 100 µM in each case. In addition, the TGI in the assay with UACC-62 melanoma and in the assay on UO-31 renal was over 100 µM in each case.
`O=[N+]1ON=C(c2ccccc2)C1=C1C(c2c(-c3ccccc3)no[n+]2[O-])=NON1[O-]`: the TGI in the assay with ACHN renal was 27.4 µM; in the assay with DU-145 prostate, over 100 µM; in the assay on EKVX NSCLC, over 100 µM; in the assay with KM12 colon, over 100 µM; with MALME-3M melanoma, 51.3 µM; in the assay on MCF7 breast, 7.51 µM. Further, the TGI in the assay on MDA-MB-231 breast was 95.9 µM; in the assay on MDA-N it was 10.5 µM; with NCI-H460 lung it was 68.7 µM; in the assay on NCI-H522 lung it was over 100 µM; in the assay with OVCAR-5 ovarian, over 100 µM; in the assay on PC-3 prostate, 11.3 µM. For the same compound, the TGI in the assay with RPMI-8226 leukemia was over 100 µM; in the assay with SF-539 CNS, 73.4 µM; with TK-10 renal, over 100 µM; in the assay on UACC-62 melanoma, 51.2 µM; with UO-31 renal it was 48.6 µM.
As for `COC(CC1(/C=C/O[Si](C(C)C)(C(C)C)C(C)C)C(=O)N(COCC[Si](C)(C)C)c2ccccc21)OC` (stereo not drawn), the TGI with ACHN renal, with DU-145 prostate, with KM12 colon, in the assay with MDA-MB-231 breast, in the assay with MDA-N and in the assay on NCI-H460 lung was over 100 µM each time. The TGI in the assay with NCI-H522 lung is 23.6 µM; in the assay on OVCAR-5 ovarian, over 100 µM; in the assay on PC-3 prostate, 85.2 µM; in the assay with RPMI-8226 leukemia it was over 100 µM; with SF-539 CNS it was 58.7 µM; in the assay on T-47D breast it was over 100 µM. In addition, the TGI was over 100 µM in the assay on TK-10 renal, 69.4 µM in the assay on UACC-62 melanoma and over 100 µM with UO-31 renal.
In the case of `NNC1=N/C(=C\c2ccco2)C(=O)N1`, the TGI in the assay with ACHN renal, in the assay with EKVX NSCLC, in the assay on KM12 colon, with MALME-3M melanoma, in the assay on MCF7 breast and in the assay with MDA-MB-231 breast was over 100 µM in each case. Besides, the TGI with MDA-N, in the assay on NCI-H522 lung, in the assay with OVCAR-5 ovarian, with PC-3 prostate, with RPMI-8226 leukemia and in the assay with SF-539 CNS was over 100 µM each time. For the same compound, the TGI in the assay on T-47D breast, in the assay on TK-10 renal, in the assay on UACC-62 melanoma and in the assay with UO-31 renal was over 100 µM throughout.
For the compound `O=C1C(Cl)C2(CC(/C=C/c3ccccc3O)=NN2c2cccc(S(=O)(=O)O)c2)N1c1nc2ccccc2s1` (stereo not drawn), the TGI in the assay with ACHN renal turned out to be 53 µM; with EKVX NSCLC it was 45.8 µM; in the assay on KM12 colon, 30.3 µM; in the assay with MALME-3M melanoma it was 27.1 µM; with MCF7 breast it was 31.8 µM; with MDA-MB-231 breast, 74.6 µM. Further, the TGI in the assay on MDA-N was 47 µM; with NCI-H460 lung, 34.6 µM; in the assay on NCI-H522 lung, 14.6 µM; in the assay on OVCAR-5 ovarian it was 45.8 µM; with PC-3 prostate, over 100 µM; in the assay on RPMI-8226 leukemia, 35.5 µM. Also, the TGI with SF-539 CNS came out at 36.5 µM; in the assay with T-47D breast, 37.4 µM; with TK-10 renal, 26 µM; in the assay on UACC-62 melanoma it was 30.9 µM; in the assay with UO-31 renal it was 26.2 µM.
Take `COC(=O)C1(C(=O)OC)N=C(C)OC1c1ccccn1` (stereo not drawn): the TGI in the assay on ACHN renal, in the assay on DU-145 prostate, with EKVX NSCLC, in the assay with KM12 colon, in the assay on MCF7 breast and with MDA-N was over 100 µM each time. Also, the TGI in the assay with NCI-H460 lung, with OVCAR-5 ovarian, in the assay with PC-3 prostate, with RPMI-8226 leukemia, in the assay on T-47D breast and with TK-10 renal was over 100 µM each time. Further, the TGI with UACC-62 melanoma and in the assay with UO-31 renal was over 100 µM in each case.
On to `Cc1ccc(N=C2S/C(=C3/CCC=C3N3CCOCC3)N(c3ccc(Cl)cc3)C2=Nc2ccc(C)cc2)cc1`, for which the TGI in the assay on ACHN renal, in the assay with EKVX NSCLC, in the assay on KM12 colon, in the assay on MALME-3M melanoma, in the assay with MCF7 breast and in the assay with MDA-MB-231 breast was over 100 µM throughout. Also, the TGI in the assay with MDA-N, in the assay on NCI-H460 lung, with OVCAR-5 ovarian, in the assay on PC-3 prostate, in the assay with RPMI-8226 leukemia and in the assay on T-47D breast was over 100 µM throughout. Further, the TGI in the assay with TK-10 renal, in the assay with UACC-62 melanoma and with UO-31 renal was over 100 µM in each case.
Take `O=C(Nc1nc(C23CC4CC(CC(C4)C2)C3)cs1)c1cc2cc(Cl)ccc2oc1=O`: the TGI with ACHN renal, with DU-145 prostate, in the assay with EKVX NSCLC, with KM12 colon, with MALME-3M melanoma and with MCF7 breast was over 100 µM throughout. In addition, the TGI in the assay with MDA-MB-231 breast, in the assay with MDA-N, with NCI-H460 lung, in the assay on NCI-H522 lung, with OVCAR-5 ovarian and with PC-3 prostate was over 100 µM throughout. In addition, the TGI in the assay with RPMI-8226 leukemia, with SF-539 CNS, in the assay on TK-10 renal and in the assay with UO-31 renal was over 100 µM throughout.
Turning to `COc1ccc(/C=C/C(=N/NC(=O)N/N=C(/C=C/c2ccc(OC)cc2)C(C)(C)CN2CCCCC2)C(C)(C)CN2CCCCC2)cc1`, the TGI is 3.19 µM with ACHN renal; over 10 µM with DU-145 prostate; over 10 µM with EKVX NSCLC; 3.27 µM in the assay with KM12 colon; 3.42 µM in the assay on MALME-3M melanoma; 6.26 µM with MCF7 breast. Besides, the TGI with MDA-N was 3.06 µM; in the assay with NCI-H460 lung, 3.82 µM; with NCI-H522 lung, 3.59 µM; in the assay on OVCAR-5 ovarian, 8.16 µM; in the assay on PC-3 prostate it was 6.62 µM; in the assay with RPMI-8226 leukemia, 4.23 µM. Moreover, the TGI with SF-539 CNS was 4.11 µM; in the assay on T-47D breast, 4.1 µM; in the assay on TK-10 renal, 3.67 µM; in the assay on UO-31 renal it was 2.95 µM.
Regarding `CC1(C)OCC(C2OC(OC(=O)c3ccc([N+](=O)[O-])cc3)C3OC(C)(C)OC23)O1` (stereo not drawn), the TGI with ACHN renal, with DU-145 prostate, in the assay on EKVX NSCLC, in the assay with KM12 colon, in the assay on MALME-3M melanoma and in the assay with MCF7 breast was over 100 µM in each case. Also, the TGI in the assay with MDA-MB-231 breast, in the assay with MDA-N, with NCI-H460 lung, with NCI-H522 lung, in the assay with OVCAR-5 ovarian and with PC-3 prostate was over 100 µM in each case. Further, the TGI in the assay with RPMI-8226 leukemia, with SF-539 CNS, with TK-10 renal, with UACC-62 melanoma and in the assay with UO-31 renal was over 100 µM each time.
`O=C(COc1ccc(OCC(=O)NNC2=NC(c3cc(F)c(Cl)cc3Cl)CS2)c(Cl)c1)NNC1=NC(c2cc(F)c(Cl)cc2Cl)CS1` (stereo not drawn): the TGI with ACHN renal is over 100 µM; in the assay on DU-145 prostate, 59.8 µM; with EKVX NSCLC, 77.3 µM; with KM12 colon it was over 100 µM; in the assay with MALME-3M melanoma, over 100 µM; in the assay with MCF7 breast it was 34.6 µM. Moreover, the TGI was 54.5 µM with MDA-MB-231 breast; 92.9 µM in the assay on MDA-N; over 100 µM in the assay with NCI-H460 lung; 34.5 µM in the assay with NCI-H522 lung; over 100 µM with OVCAR-5 ovarian; over 100 µM with PC-3 prostate. For the same compound, the TGI in the assay on RPMI-8226 leukemia was over 100 µM; in the assay with SF-539 CNS, 64.5 µM; in the assay on TK-10 renal it was over 100 µM; in the assay with UACC-62 melanoma, 40.4 µM; in the assay with UO-31 renal, over 100 µM.
For the compound `CCN1C(=O)/C(=C2\SC(c3ccccc3)(c3ccccc3)c3ccccc32)SC1=S`, the TGI in the assay on ACHN renal, with DU-145 prostate, in the assay with EKVX NSCLC, with KM12 colon, in the assay with MALME-3M melanoma and with MCF7 breast was over 100 µM each time. Further, the TGI in the assay on MDA-MB-231 breast, in the assay with MDA-N, with NCI-H460 lung, in the assay with NCI-H522 lung, in the assay with OVCAR-5 ovarian and with PC-3 prostate was over 100 µM throughout. For the same compound, the TGI with RPMI-8226 leukemia, in the assay with SF-539 CNS, in the assay with TK-10 renal, in the assay on UACC-62 melanoma and with UO-31 renal was over 100 µM throughout.
